In patent US20160272617A1, “SUBSTITUTED PHENYLALANINE DERIVATIVES” (BAYER PHARMA AKTIENGESELLSCHAFT, priority 2013, published 2016):
Counter-ions that a name gives are not always drawn.

Assays:
human factor XIa = target: T1, human factor XIa (Homo sapiens, UniProt P03951); experiment: Measurement of FXIa inhibition (fluorogenic peptide substrate Boc-Glu(OBzl)-Ala-Arg-AMC); type: biochemical; conditions: factor XIa from Kordia, 15 min preincubation, 30 min at 22° C., fluorescence
T1 construct: purchased Kordia
T1 sequence (P03951 388-625 limits assumed): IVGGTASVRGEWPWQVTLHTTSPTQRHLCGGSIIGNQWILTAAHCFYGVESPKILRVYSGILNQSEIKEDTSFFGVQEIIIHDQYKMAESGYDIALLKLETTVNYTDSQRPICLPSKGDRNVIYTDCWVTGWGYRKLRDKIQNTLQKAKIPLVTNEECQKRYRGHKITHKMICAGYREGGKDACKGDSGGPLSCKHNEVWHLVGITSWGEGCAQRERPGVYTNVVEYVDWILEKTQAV
T1 sequence (P03951 19-387 partner limits assumed): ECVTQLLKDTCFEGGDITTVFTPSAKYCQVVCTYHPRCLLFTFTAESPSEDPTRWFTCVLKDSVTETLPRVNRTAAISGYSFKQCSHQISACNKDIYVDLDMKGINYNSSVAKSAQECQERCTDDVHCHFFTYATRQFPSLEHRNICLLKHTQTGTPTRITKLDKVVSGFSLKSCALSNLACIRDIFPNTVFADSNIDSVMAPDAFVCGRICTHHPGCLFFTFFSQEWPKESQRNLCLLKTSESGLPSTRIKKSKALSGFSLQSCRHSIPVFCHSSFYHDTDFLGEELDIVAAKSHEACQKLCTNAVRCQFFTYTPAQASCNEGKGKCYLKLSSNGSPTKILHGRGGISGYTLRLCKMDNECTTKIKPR
How it was run: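 Released AMC fluorescence (360/460 nm) read after 30 min at 22 °C. The reaction was started with Boc-Glu(OBzl)-Ala-Arg-AMC (10 μM stock) after a 15 min preincubation of the enzyme (0.45 nM stock) with compound (final 50 μM to 0.00013 μM).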

human and animal plasma = experiment: Determination of anticoagulatory activity: activated partial thromboplastin time (aPTT) in plasma; conditions: concentration of test substance which brings about a 1.5-fold extension of the aPTT; plasma species not given
How it was run: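 Citrated plasma (1:9, 0.11 M citrate; 4000 g, 15 min) from human or animal blood incubated with test compound and cephalin/kaolin PTT reagent for 3 min at 37° C.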

Compound: Cc1cc(C(=O)NC2CCNCC2)ccc1-c1ccc(C[C@H](NC(=O)[C@H]2CC[C@H](CN)CC2)C(=O)Nc2ccc3[nH]c(=O)oc3c2)cc1 [Example 55, 4′-{(2S)-2-({[trans-4-(Aminomethyl)cyclohexyl]carbonyl}amino)-3-oxo-3-[(2-oxo-2,3-dihydro-1,3-benzoxazol-6-yl)amino]propyl}-2-methyl-N-(piperidin-4-yl)biphenyl-4-carboxamide hydrochloride]
- IC50 (human factor XIa): 41 nM
- aPTT (human and animal plasma): 0.37 µmol/L

Compound: Cc1cc(C(=O)NCCO)ccc1-c1ccc(C[C@H](NC(=O)[C@H]2CC[C@H](CN)CC2)C(=O)Nc2ccc(-c3nn[nH]n3)cc2)cc1 [Example 18, 4′-[(2S)-2-({[trans-4-(Aminomethyl)cyclohexyl]carbonyl}amino)-3-oxo-3-{[4-(2H-tetrazol-5-yl)phenyl]amino}propyl]-N-(2-hydroxyethyl)-2-methylbiphenyl-4-carboxamide hydrochloride]
- IC50 (human factor XIa): 3.7 nM
- aPTT (human and animal plasma): 0.16 µmol/L

Compound: Cc1cc(C(=O)NC2CCC(N(C)C)CC2(C)C)ccc1-c1ccc(C[C@H](NC(=O)[C@H]2CC[C@H](CN)CC2)C(=O)Nc2ccc(-c3nnn[nH]3)cc2)cc1 (stereo partly drawn) [Example 144, 4′-[(2S)-2-({[trans-4-(Aminomethyl)cyclohexyl]carbonyl}amino)-3-oxo-3-{[4-(1H-tetrazol-5-yl)phenyl]amino}propyl]-N-[4-(dimethylamino)-2,2-dimethylcyclohexyl]-2-methylbiphenyl-4-carboxamide hydrochloride]
- IC50 (human factor XIa): 1.8 nM
- aPTT (human and animal plasma): 0.06 µmol/L

Compound: Cc1cc(C(=O)NC2CCNCC2)ccc1-c1ccc(C[C@H](NC(=O)[C@H]2CC[C@H](CN)CC2)C(=O)Nc2ccc3[nH]c(=O)[nH]c3c2)cc1 [Example 53, 4′-{(2S)-2-({[trans-4-(Aminomethyl)cyclohexyl]carbonyl}amino)-3-oxo-3-[(2-oxo-2,3-dihydro-1H-benzimidazol-5-yl)amino]propyl}-2-methyl-N-(piperidin-4-yl)biphenyl-4-carboxamide hydrochloride]
- IC50 (human factor XIa): 16 nM
- aPTT (human and animal plasma): 0.16 µmol/L

Compound: CCOc1cc(C(=O)NC2CCNCC2)ccc1-c1ccc(C[C@H](NC(=O)[C@H]2CC[C@H](CN)CC2)C(=O)Nc2ccc(-c3nn[nH]n3)cc2)cc1 [Example 119, 4′-[(2S)-2-({[trans-4-(Aminomethyl)cyclohexyl]carbonyl}amino)-3-oxo-3-{[4-(2H-tetrazol-5-yl)phenyl]amino}propyl]-2-ethoxy-N-(piperidin-4-yl)biphenyl-4-carboxamide hydrochloride]
- IC50 (human factor XIa): 2.1 nM
- aPTT (human and animal plasma): 0.08 µmol/L

Compound: Cc1cc(C(=O)NC2CCNCC2)ccc1-c1ccc(C[C@H](NC(=O)[C@H]2CC[C@H](CN)CC2)C(=O)Nc2ccc(-c3nnc(CCC(=O)O)[nH]3)cc2)cc1 [Example 152, 3-{(5-[4-({(2S)-2-({[trans-4-(Aminomethyl)cyclohexyl]carbonyl}amino)-3-[2′-methyl-4′-(piperidin-4-ylcarbamoyl)biphenyl-4-yl]propanoyl}amino)phenyl]-4H-1,2,4-triazol-3-yl}propanoic acid hydrochloride]
- IC50 (human factor XIa): 5.3 nM
- aPTT (human and animal plasma): 0.7 µmol/L

Compound: Cc1cc(C(=O)NCCN)ccc1-c1ccc(C[C@H](NC(=O)[C@H]2CC[C@H](CN)CC2)C(=O)Nc2ccc3cn[nH]c3c2)cc1 [Example 3, N-(2-Aminoethyl)-4′-[(2S)-2-({[trans-4-(aminomethyl)cyclohexyl]carbonyl}amino)-3-(1H-indazol-6-ylamino)-3-oxopropyl]-2-methylbiphenyl-4-carboxamide hydrochloride]
- IC50 (human factor XIa): 11 nM
- aPTT (human and animal plasma): 0.2 µmol/L

Compound: Cc1cc(C(=O)NC2CCN(C)CC2)ccc1-c1ccc(C[C@H](NC(=O)[C@H]2CC[C@H](CN)CC2)C(=O)Nc2ccc(-c3nn[nH]n3)cc2)cc1 [Example 42, 4′-[(2S)-2-({[trans-4-(Aminomethyl)cyclohexyl]carbonyl}amino)-3-oxo-3-{[4-(2H-tetrazol-5-yl)phenyl]amino}propyl]-2-methyl-N-(1-methylpiperidin-4-yl)biphenyl-4-carboxamide hydrochloride]
- IC50 (human factor XIa): 3.6 nM
- aPTT (human and animal plasma): 0.1 µmol/L

Compound: Cc1cc(C(=O)NC2CCNCC2)ccc1-c1ccc(C[C@H](NC(=O)[C@H]2CC[C@H](CN)CC2)C(=O)Nc2ccc3nc(C(F)F)[nH]c3c2)cc1 [Example 86, 4′-[(2S)-2-({[trans-4-(Aminomethyl)cyclohexyl]carbonyl}amino)-3-{[2-(difluoromethyl)-1H-benzimidazol-6-yl]amino}-3-oxopropyl]-2-methyl-N-(piperidin-4-yl)biphenyl-4-carboxamide hydrochloride]
- IC50 (human factor XIa): 13 nM
- aPTT (human and animal plasma): 0.14 µmol/L

Compound: Cc1cc(C(=O)NCC2CCN(C)CC2)ccc1-c1ccc(C[C@H](NC(=O)[C@H]2CC[C@H](CN)CC2)C(=O)Nc2ccc(-c3nnc(C(F)(F)C(F)(F)C(=O)O)[nH]3)cc2)cc1 [Example 108, 3-[5-(4-{[(2S)-2-({[trans-4-(Aminomethyl)cyclohexyl]carbonyl}amino)-3-(2′-methyl-4′-{[(1-methylpiperidin-4-yl)methyl]carbamoyl}biphenyl-4-yl)propanoyl]amino}phenyl)-4H-1,2,4-triazol-3-yl]-2,2,3,3-tetrafluoropropanoic acid hydrochloride]
- IC50 (human factor XIa): 1.9 nM
- aPTT (human and animal plasma): 0.07 µmol/L

Compound: Cc1cc(C(=O)N[C@H]2CCNC2)ccc1-c1ccc(C[C@H](NC(=O)[C@H]2CC[C@H](CN)CC2)C(=O)Nc2ccc(-c3nnc(C(F)(F)C(F)(F)C(=O)O)[nH]3)cc2)cc1 [Example 153, 3-[5-(4-{[(2S)-2-({[trans-4-(Aminomethyl)cyclohexyl]carbonyl}amino)-3-{2′-methyl-4′-[(3S)-pyrrolidin-3-ylcarbamoyl]biphenyl-4-yl}propanoyl]amino}phenyl)-4H-1,2,4-triazol-3-yl]-2,2,3,3-tetrafluoropropanoic acid hydrochloride]
- IC50 (human factor XIa): 1.8 nM
- aPTT (human and animal plasma): 0.08 µmol/L

Compound: Cc1cc(C(=O)NC2CCNCC2)ccc1-c1ccc(C[C@H](NC(=O)[C@H]2CC[C@H](CN)CC2)C(=O)Nc2ccc(-c3c[nH]cn3)cc2)cc1 [Example 84, 4′-[(2S)-2-({[trans-4-(Aminomethyl)cyclohexyl]carbonyl}amino)-3-{[4-(1H-imidazol-4-yl)phenyl]amino}-3-oxopropyl]-2-methyl-N-(piperidin-4-yl)biphenyl-4-carboxamide hydrochloride]
- IC50 (human factor XIa): 18 nM
- aPTT (human and animal plasma): 0.3 µmol/L

Compound: Cc1nc2ccc(NC(=O)[C@H](Cc3ccc(-c4ccc(C(=O)NC5CCNCC5)cc4C)cc3)NC(=O)[C@H]3CC[C@H](CN)CC3)cc2[nH]1 [Example 50, 4′-{(2S)-2-({[trans-4-(Aminomethyl)cyclohexyl]carbonyl}amino)-3-[(2-methyl-1H-benzimidazol-6-yl)amino]-3-oxopropyl}-2-methyl-N-(piperidin-4-yl)biphenyl-4-carboxamide hydrochloride]
- IC50 (human factor XIa): 8.3 nM
- aPTT (human and animal plasma): 0.16 µmol/L

Compound: Cc1cc(C(=O)NC2CCN(C(C)C)CC2)ccc1-c1ccc(C[C@H](NC(=O)[C@H]2CC[C@H](CN)CC2)C(=O)Nc2ccc(-c3nn[nH]n3)c(F)c2)cc1 [Example 89, 4′-[(2S)-2-({[trans-4-(Aminomethyl)cyclohexyl]carbonyl}amino)-3-{[3-fluoro-4-(2H-tetrazol-5-yl)phenyl]amino}-3-oxopropyl]-N-(1-isopropylpiperidin-4-yl)-2-methylbiphenyl-4-carboxamide hydrochloride]
- IC50 (human factor XIa): 4.3 nM
- aPTT (human and animal plasma): 0.03 µmol/L

Compound: Cc1cc(C(=O)NC2CCN(C)CC2)ccc1-c1ccc(C[C@H](NC(=O)[C@H]2CC[C@H](CN)CC2)C(=O)Nc2ccc(-c3nc(C(F)(F)C(F)(F)CO)n[nH]3)cc2)cc1 [Example 109, 4′-[(2S)-2-({[trans-4-(Aminomethyl)cyclohexyl]carbonyl}amino)-3-oxo-3-({4-[3-(1,1,2,2-tetrafluoro-3-hydroxypropyl)-1H-1,2,4-triazol-5-yl]phenyl}amino)propyl]-2-methyl-N-(1-methylpiperidin-4-yl)biphenyl-4-carboxamide hydrochloride]
- IC50 (human factor XIa): 3 nM
- aPTT (human and animal plasma): 0.11 µmol/L

Compound: Cc1cc(C(=O)NC2CCNCC2)ccc1-c1ccc(C[C@H](NC(=O)[C@H]2CC[C@H](CN)CC2)C(=O)Nc2ccc3c(=O)[nH][nH]c3c2)cc1 [Example 22, 4′-{(2S)-2-({[trans-4-(Aminomethyl)cyclohexyl]carbonyl}amino)-3-oxo-3-[(3-oxo-2,3-dihydro-1H-indazol-6-yl)amino]propyl}-2-methyl-N-(piperidin-4-yl)biphenyl-4-carboxamide hydrochloride]
- IC50 (human factor XIa): 15 nM
- aPTT (human and animal plasma): 0.06 µmol/L

Compound: Cc1cc(C(=O)N[C@H]2CC[C@H](O)CC2)ccc1-c1ccc(CC(NC(=O)[C@H]2CC[C@H](CN)CC2)C(=O)Nc2ccc(-c3nnc(C(F)(F)C(F)(F)C(=O)O)[nH]3)cc2)cc1 (mixture of isomers) [Example 103, 3-[5-(4-{[2-({[trans-4-(Aminomethyl)cyclohexyl]carbonyl}amino)-3-{4′-[(trans-4-hydroxycyclohexyl)carbamoyl]-2′-methylbiphenyl-4-yl}propanoyl]amino}phenyl)-4H-1,2,4-triazol-3-yl]-2,2,3,3-tetrafluoropropanoic acid hydrochloride (enantiomer mixture)]
- IC50 (human factor XIa): 1.1 nM
- aPTT (human and animal plasma): 0.1 µmol/L

Compound: Cc1cc(C(=O)NC2CCNCC2)ccc1-c1ccc(C[C@H](NC(=O)[C@H]2CC[C@H](CN)CC2)C(=O)Nc2ccc3nc(C(F)(F)C(F)(F)C(F)(F)F)[nH]c3c2)cc1 [Example 85, 4′-[(2S)-2-({[trans-4-(Aminomethyl)cyclohexyl]carbonyl}amino)-3-{[2-(heptafluoropropyl)-1H-benzimidazol-6-yl]amino}-3-oxopropyl]-2-methyl-N-(piperidin-4-yl)biphenyl-4-carboxamide hydrochloride]
- IC50 (human factor XIa): 16 nM
- aPTT (human and animal plasma): 0.12 µmol/L
